The results in this text go back to ChEMBL document CHEMBL1131966, “On topography and functionality in the B-D rings of cephalostatin cytotoxins” (Bioorg Med Chem Lett, 1999).

One experiment concerns HL-60. Briefly: In vitro cytotoxicity against HL-60 leukemia human tumors following a 2 day exposure. The experiment is classed as functional. Conditions: HL-60, 48 h.
The subject of experiment [1] is HT-29. Briefly: In vitro cytotoxicity against Colon HT-29 human tumors following a 6 day exposure. The experiment is classed as functional. Conditions: HT-29, 144 h, read-out: ED50 (the source's name).
The test system of a further experiment is RXF 393. The experiment in a line: In vitro cytotoxicity against Renal RXF-393 human tumors following a 2 day exposure. The experiment is classed as functional. Conditions: RXF 393, 48 h.
The species named for experiment [2] is Homo sapiens. Briefly: In vitro cytotoxicity against Breast avg 1-3 types of human tumors following a 6 day exposure. It is filed as functional. Conditions: 144 h, read-out: ED50 (the source's name).
The subject of experiment [3] is A549. The experiment in a line: In vitro cytotoxicity against Lung A-549 human tumors following a 2 day exposure. Conditions: A549, 48 h. The experiment is classed as functional.
For another experiment, the system named is MIA PaCa-2. Briefly: (§1) In vitro cytotoxicity against […] PACA-2 human tumors following a 6 day exposure. The experiment is classed as functional. Conditions: MIA PaCa-2, 144 h, read-out: ED50 (the source's name).
The subject of a further experiment is P388. The experiment in a line: In vitro cytotoxicity against P388 leukemic cell line following a 6 day exposure. The experiment is classed as functional, cell-based. Conditions: Mus musculus, P388, 144 h.
Experiment [4] relates to HT-29. The experiment in a line: In vitro cytotoxicity against Colon HT-29 human tumors following a 2 day exposure. It is filed as functional. Conditions: HT-29, 48 h.
For experiment [5], the system named is A498. Briefly: In vitro cytotoxicity against Renal A-498 human tumors following a 2 day exposure. Conditions: A498, 48 h. It is filed as functional.
For experiment [6], the system named is PC-3. The experiment in a line: In vitro cytotoxicity against prostate PC-3 human tumors following a 2 day exposure. The experiment is classed as functional. Conditions: PC-3, 48 h.
Another experiment deals with SF-295. Briefly: In vitro cytotoxicity against CNS SF-295 human tumors following a 2 day exposure. Conditions: SF-295, 48 h. It is filed as functional.
In experiment [7] the test system is NCI. Briefly: In vitro cytotoxicity against a subset of 10 cell lines (NCI-10) in human tumors following a 2 day exposure. Values in parentheses is the % cell lines affected. It is filed as functional. Conditions: 48 h.
In another experiment the test system is IGROV-1. The experiment in a line: In vitro cytotoxicity against Ovary IGROVIg OVI human tumors following a 2 day exposure. The experiment is classed as functional. Conditions: IGROV-1, 48 h.
For experiment [8], the species on record is Homo sapiens. Briefly: In vitro cytotoxicity against various human tumors (6-8 lines) as determined in the Purdue cell culture laboratory, following a 6 day exposure. Conditions: 144 h, read-out: ED50 (the source's name). The experiment is classed as functional.
A further experiment relates to LOX IMVI. Briefly: In vitro cytotoxicity against Skin LOX IMVI human tumors following a 2 day exposure. The experiment is classed as functional. Conditions: 48 h.
Experiment [9] deals with Panel NCI-60 (60 carcinoma cell lines). The experiment in a line: In vitro cytotoxicity against a subset of 60 cell lines (NCI-60) in human tumors following a 2 day exposure. Values in parentheses is the % cell lines affected. Conditions: 48 h. The experiment is classed as functional.
In experiment [10] the test system is PC-3. Briefly: In vitro cytotoxicity against prostate PC-3 human tumors following a 6 day exposure. It is filed as functional. Conditions: PC-3, 144 h, read-out: ED50 (the source's name).
Another experiment has as its system MCF7. Briefly: In vitro cytotoxicity against Breast MCF-7 human tumors following a 2 day exposure. It is filed as functional. Conditions: 48 h.
Experiment [11] concerns NCI. Briefly: In vitro cytotoxicity against a subset of 10 cell lines (NCI-10) in human tumors following a 2 day exposure; ND is no data. It is filed as functional. Conditions: 48 h.
Experiment [12] concerns A549. Briefly: In vitro cytotoxicity against Lung A-549 human tumors following a 6 day exposure. Conditions: A549, 144 h, read-out: ED50 (the source's name). The experiment is classed as functional.
Experiment [13] relates to A498. The experiment in a line: In vitro cytotoxicity against Renal A-498 human tumors following a 6 day exposure. The experiment is classed as functional. Conditions: A498, 144 h, read-out: ED50 (the source's name).
A short description of experiment [14]: as §1. Conditions: PaCa-2, 144 h, read-out: ED50 (the source's name). The experiment is classed as functional.

Usually GI50 stands for the concentration at which growth is held to half of that of the control. As usually defined, the IC50 is the point on the concentration scale where inhibition reaches its midpoint. A lower IC50 goes with greater potency.

As to `C[C@@H]1[C@@]2(CC[C@](C)(O)CO2)O[C@H]2C=C3[C@H]4CC[C@H]5Cc6nc7c(nc6C[C@]5(C)[C@H]4C[C@@H](O)[C@]3(C)[C@]21O)C[C@@H]1CC[C@H]2C3=C[C@@H]4O[C@]5(CC[C@@](C)(O)CO5)[C@@H](C)[C@]4(O)[C@@]3(C)[C@H](O)C[C@@H]2[C@@]1(C)C7` [RITTERAZINE K], the GI50 is 4.4 nM in the experiment on HL-60; 1.4 nM with RXF 393; 110 nM in the experiment with A549 [3]; 288 nM with HT-29 [4]; 190 nM in the experiment on A498 [5]; 91 nM with PC-3 [6]. Besides, the GI50 in the experiment on SF-295 worked out at 4.1 nM; with NCI [7] it was 4.5 nM; with IGROV-1 it was 347 nM; in the experiment on LOX IMVI, 20 nM; in [9], 96 nM; with MCF7, 100 nM. The EC50 was 28 nM with HT-29 [1]; 11 nM in the experiment filed under Homo sapiens [2]; 0.051 nM with MIA PaCa-2; 0.047 nM in the experiment listed under Homo sapiens [8]; 0.0021 nM with PC-3 [10]. This compound registered an IC50 with P388 of 10 nM.
`C[C@@H]1C2(OC3C=C4C5CCC6Cc7nc8c(nc7C[C@]6(C)C5C[C@@H](O)[C@]4(C)C31O)CC1CCC3C4=CCC5[C@H](C)[C@@]6(OC[C@]45[C@H](O)CC3[C@@]1(C)C8)OC(C)(C)C[C@H]6O)O[C@](C)(CO)C[C@H]2O` (stereo not given in full): the EC50 in the experiment with HT-29 [1] turned out to be 0.0012 nM; in the experiment listed under Homo sapiens [2], 0.0011 nM.
`C[C@@H]1[C@@]2(CC[C@](C)(O)CO2)O[C@H]2C=C3[C@@H]4[C@@H](O)C[C@H]5Cc6nc7c(nc6C[C@]5(C)[C@H]4C[C@@H](O)[C@]3(C)[C@]21O)C[C@@H]1CC[C@H]2[C@H]3C[C@@H]4O[C@@]5(CCC(C)(C)O5)C[C@@H]4[C@@]3(C)[C@H](O)C[C@@H]2[C@@]1(C)C7` [RITTERAZINE B]: the GI50 was 0.16 nM in the experiment with HL-60, less than 0.1 nM in the experiment on RXF 393, 1 nM in the experiment on NCI [11] and less than 0.1 nM with SF-295. Further, the EC50 in the experiment filed under Homo sapiens [2] was determined as 0.0021 nM. In the experiment with P388, the IC50 was 0.17 nM.
For the compound `CC1C2(O)C(C=C3C4CCC5Cc6nc7c(nc6C[C@]5(C)C4C[C@@H](O)[C@@]32C)CC2CCC3C4=CC5OC6(CCC(C)(C)O6)[C@@H](C)C5[C@@]4(C)[C@H](O)CC3[C@@]2(C)C7)O[C@]12CC[C@](C)(O)CO2` (stereo not given in full), the GI50 in the experiment on HL-60 is 1.2 nM; with RXF 393, 0.55 nM; with A549 [3], 76 nM; in the experiment on HT-29 [4], more than 650 nM; in the experiment on A498 [5], 0.55 nM; with PC-3 [6], 12 nM. The concentration for 50% growth inhibition (GI50) in the experiment on SF-295 is 1.2 nM; in the experiment on NCI [7], 4.2 nM; with IGROV-1, more than 1000 nM; in the experiment with LOX IMVI it was 12 nM; in [9], more than 34 nM; with MCF7, 37 nM. Moreover, the EC50 was determined as 0.012 nM with HT-29 [1] and 0.036 nM in the experiment filed under Homo sapiens [2].
Turning to `COc1cccc2c1C(=O)c1c(O)c3c(c(O)c1C2=O)C[C@@](O)(C(=O)CO)C[C@@H]3O[C@H]1C[C@H](N)[C@H](O)[C@H](C)O1` [DOXORUBICIN], the EC50 in the experiment with HT-29 [1] is 37 nM; in the experiment filed under Homo sapiens [2] it was 150 nM; in the experiment with MIA PaCa-2 it was 6.3 nM; in the experiment with A549 [12] it was 6.2 nM; in the experiment filed under Homo sapiens [8] it was 18.7 nM; with PC-3 [10], 57 nM. For the same compound, the EC50 in the experiment with A498 [13] is 3.5 nM.
For `C[C@@H]1[C@@]2(CC[C@](C)(O)CO2)O[C@H]2C=C3[C@@H]4[C@@H](O)C[C@H]5Cc6nc7c(nc6C[C@]5(C)[C@H]4C[C@@H](O)[C@]3(C)[C@]21O)C[C@@H]1CC[C@H]2C3=C[C@@H]4O[C@]5(CC[C@@](C)(O)CO5)[C@@H](C)[C@]4(O)[C@@]3(C)[C@H](O)C[C@@H]2[C@@]1(C)C7` [RITTERAZINE J], the IC50 in the experiment with P388 was determined as 14 nM.
Turning to `C[C@@H]1[C@]2(O[C@H]3C=C4[C@@H]5CC[C@H]6Cc7nc8c(nc7C[C@]6(C)[C@H]5C[C@@H](O)[C@]4(C)[C@]31O)C[C@@H]1CC[C@H]3C4=C[C@@H]5O[C@]6(CC[C@](C)(O)CO6)C[C@]5(O)[C@@]4(C)[C@H](O)C[C@@H]3[C@@]1(C)C8)O[C@](C)(CO)C[C@H]2O` [CEPHALOSTATIN 7], the GI50 with HL-60 turned out to be 25 nM; in the experiment on RXF 393, 7.9 nM; with A549 [3] it was 138 nM; in the experiment with HT-29 [4] it was 271 nM; with A498 [5], 31 nM; in the experiment on PC-3 [6], 23 nM. Moreover, the 50% growth inhibitory concentration (GI50) in the experiment on SF-295 was determined as 11 nM; with NCI [7] it was 16 nM; with IGROV-1, 480 nM; with LOX IMVI, 37 nM; in [9] it was 50 nM; in the experiment on MCF7, 27 nM. The EC50 in the experiment on HT-29 [1] stood at 30 nM; in the experiment listed under Homo sapiens [2], 38 nM; in experiment [14], 0.41 nM; in the experiment listed under Homo sapiens [8], 0.052 nM; with PC-3 [10], 0.0021 nM.
